Assay results reported in a melting point compilation (Tetko et al.; mined from patent text by program, amines drawn as free bases though some values may be those of a salt).

Row | SMILES | melting point
1 | O=C(O)c1ccc(C(=O)c2cccnc2)cc1 | 266 to 267 °C
2 | COc1cccc(COCCCn2ccnc2)c1NC(=O)CC1c2ccccc2Oc2ccccc21 | 155 to 156 °C
3 | O=C1CN2Cc3cc(OCCCC(=O)N(CCO)CC4CCCCC4)ccc3N=C2N1 | 223 to 224 °C
4 | C=Cc1cc(O[Si](C)(C)C(C)(C)C)cc2nc(-c3ccc(O[Si](C)(C)C(C)(C)C)c(F)c3)oc12 | 93 to 95 °C
5 | Cn1cc(-c2cccc(C(F)(F)F)c2)c(=O)c(-c2ccccc2Cl)c1 | 191 to 193 °C
6 | CC(C)(C)c1ccc(N(CCCOc2ccc(C(=O)O)cc2)C(=O)c2ccc3c(c2)OCO3)cc1 | 199 to 203 °C
7 | COC(=O)C(Cc1ccccc1)Oc1ccc2cc(CNC(=O)c3oc4ccccc4c3C)ccc2c1Br (configuration not stated) | 129 to 133 °C
8 | OCCCCCCc1ccc(OCc2coc(/C=C/c3ccccc3)n2)cc1 | 94 to 95 °C
9 | N#Cc1ccc(NCCc2nc3cc(Cl)ccc3c3nn(-c4ccccc4)cc23)nc1 | 207 to 208 °C
10 | CCCCCOc1ccc(CCOc2ccc(/C=C(\OCC)C(=O)O)cc2OCCCC)cc1Cl | 95 °C
11 | CCn1cc(C(=O)O)c(=O)c2cc(F)c(N3CC(C)C(CN)C3)cc21 (configuration not stated) | 245 to 248 °C
12 | COC(=O)[C@@H]1C[C@@H](OS(C)(=O)=O)CN1C(=O)OC(C)(C)C | 86 to 87 °C
13 | OC(c1nc(-c2ccc(F)cc2)c(-c2ccc(F)cc2)[nH]1)(C(F)(F)F)C(F)(F)F | 153 to 155 °C
14 | O=C(O)c1cccc(-c2ccc(F)c3cc(Cc4ccc(F)c(F)c4)sc23)c1 | 224 to 225 °C
15 | CCC(CO)Nc1ccc(-c2cccc(C(F)(F)F)c2)nn1 (configuration not stated) | 84 to 87 °C
16 | COc1cn(-c2ccc(-n3cc(F)c(F)c3)cc2OCC(F)(F)F)nc(-c2ccnn2-c2ccccc2)c1=O | 220 to 222 °C
17 | O=C1Cc2c([nH]c3cc(Cl)cc(Cl)c23)-c2ncccc2N1 | > 330 °C
18 | CC(=O)CC(=O)Nc1nc(C)c(C)s1 | 191 to 193 °C
19 | CC(=O)OC1CCC2(C)C(=CCC3C2CCC2(C)C(C(C)C(O)CCC(C)(C)C)CCC32)C1 (configuration not stated) | 185 to 187 °C
20 | CCCCCCCCCCCCCCCCCCNc1nc(NCC(O)C2CC(C)(C)NC(C)(C)C2)nc(NCC(O)C2CC(C)(C)NC(C)(C)C2)n1 (configuration not stated) | 104 to 107 °C
21 | COC(=O)C1CCC2C3CC(=O)C4(O)CC(O)CCC4(C)C3CCC12C (configuration not stated) | 258 to 260 °C
22 | CSc1nc(N)c(C(N)=S)s1 | 192 to 195 °C
23 | COc1cc2c(c3c1OC(C)(C)C3)C(c1ccc(=O)n(C)c1)=NC(C)(C)C2 | 158 to 159 °C
24 | COc1ccc(COC(=O)c2ccccc2)cc1OCc1ccccc1 | 75.7 °C
25 | CN1C[C@H](CN2CCC(O)(c3ccc(Cl)cc3)CC2)C=C2c3cccc4[nH]c(Cl)c(c34)C[C@H]21 | > 192 °C

Row | SMILES | melting point
26 | CCCCCCCN(CCN1CCN(CCSc2nc3c(C)c(Cl)cc(C(C)C)c3o2)CC1)C(=O)Nc1c(C(C)C)cc(O)cc1C(C)C | 138 to 140 °C
27 | CCOc1nc(NC)nc(NC(=O)NS(=O)(=O)c2cccc3c2nnn3C)n1 | 203 to 209 °C
28 | CNc1cc(CC(C#N)=CNc2ccccc2)cc(N(C)C)c1Cl | 173 to 174 °C
29 | Cc1cc(Cc2ccccc2)nc(Nc2ccc(-n3cnc(C)n3)c(F)c2)n1 | 183 to 185 °C
30 | CN(Cc1ccc(Cl)cc1)S(=O)(=O)c1cn(S(=O)(=O)N(C)C)cn1 | 112 to 114 °C
31 | O=C(NCCO)c1cccc(-c2cccc3nc(Cc4cccc(C(F)(F)F)c4)oc23)c1 | 122 to 123 °C
32 | CCOC(=O)c1cn(-c2cnsn2)c2nc(Cl)c(F)cc2c1=O | 175 to 178 °C
33 | CCCS(=O)(=O)N[C@H](C(=O)NCCc1ccc(OCC#Cc2ccc(Cl)cc2)c(OC)c1)C(C)C | 131 to 133 °C
34 | O=C1C(=Cc2ccsc2)CCc2cc(OCCn3ccnc3)ccc21 | 61 to 62 °C
35 | CCCc1cnc(NC(=O)C(c2ccccc2)c2ccccc2)o1 | 122 °C
36 | CCc1nnc2c(N)nc3ccccc3n12 | 284 to 288 °C
37 | CCOC(=O)c1ccc(OCCOC)c(OC)c1 | 57 to 60 °C
38 | NC(=O)CCc1ccnc(-c2nc(=O)c3ccccc3s2)c1 | 237 to 240 °C
39 | CC(=O)Nc1ccc(S(=O)(=O)NCCCN2CCOCC2)cc1 | 97 to 98 °C
40 | CCOC(=O)Cc1ccc(NC(=O)C(COc2ccccc2)NS(=O)(=O)c2ccc(F)cc2)cc1 (racemic) | 122 to 124 °C
41 | Cc1c(-c2ccccc2)oc2c(C(=O)NCCCN3CCN(c4ccccc4O)CC3)cccc2c1=O | 118 to 120 °C
42 | O=C(O)[C@H](Cc1ccccc1)NC(=S)Cc1ccccc1 | 63 to 65 °C
43 | Cc1ccccc1C(=O)Nc1ccc(C(=O)N2Cc3cccn3-c3ccccc32)cc1 | 206 to 207 °C
44 | O=C(c1cccs1)C(Cc1ccccc1F)n1cncn1 (configuration not stated) | 121 to 122 °C
45 | Cc1nc(-c2ccc(CN3C(=O)C4(COc5cc6c(cc54)CCO6)c4ccccc43)cc2)no1 (configuration not stated) | 185 to 186 °C
46 | Cc1nc(-c2cc3c(Oc4ccc(Cl)cc4)cncc3s2)no1 | 120 to 121 °C
47 | CCCCC1(CCCC)NC(=O)c2ccccc2N1C | 77 to 78 °C
48 | Cc1sc2ccc(Cl)cc2c1C1=NCCO1 | 100 to 102 °C
49 | Cc1nc(-c2cc3c(OC[C@@H](O)CN4CCC(c5ccc6ccccc6c5)CC4)cccc3o2)no1 | 146 to 148 °C
50 | c1ccc2c(c1)CCN(CCSc1ccnc(CSc3nc4ccccc4[nH]3)c1)C2 | 125 to 127 °C

Row | SMILES | melting point
51 | O=C1CCCC(c2ccccc2)N1c1ccc(F)cc1 (configuration not stated) | 87.5 to 88.5 °C
52 | COc1ccc(CNc2cccc3nc(-c4cccc(Cl)c4)oc23)cc1OC1CCCC1 | 133 to 134 °C
53 | COC(=O)C1Oc2ccccc2Cc2ccccc2O1 | 107 to 110 °C
54 | COC(=O)c1cc(-c2ccc(F)c(C)c2)nn(CC=Cc2ccccc2)c1=O | 95.9 to 96.7 °C
55 | C/C=C/Cn1c(Oc2cc(C)cc(C)c2)c(CC)c(=O)[nH]c1=O | 149 to 150 °C
56 | Fc1ccc(-c2cncc(CN3CC=C(c4ccccc4)CC3)c2)cc1 | 128 to 129 °C
57 | O=C1COc2cc3[nH]c(C(=O)N4CCC(Cc5ccc(F)cc5)CC4)cc3cc2N1 | 219 to 226 °C
58 | CCC1(c2ccnc(OC)c2CO)OCCCO1 | 79 °C
59 | O=c1ccoc2cc(OCCCCCl)ccc12 | 75 to 78 °C
60 | CP(C)(=O)C(O)C(=O)O (configuration not stated) | 206 to 208 °C
61 | O=C1Nc2ccccc2C1C1CCN(CC(O)C2COc3ccccc3O2)CC1 (configuration not stated) | 115 to 120 °C
62 | CCOC(=O)C1CCC(c2ccc(Cl)cc2)n2c(=O)n(CCCl)c(=O)n21 (configuration not stated) | 111 to 112 °C
63 | CC(=O)NCCC1CCc2ccn3ncc(C)c3c21 (configuration not stated) | 121 to 122 °C
64 | CC(=O)CC(=O)C=Cc1cc(O)ccc1Br | 185 to 188 °C
65 | O=C1N(CC2CCCN2)c2ccccc2C12COc1cc3c(cc12)CCO3 (configuration not stated) | 83 to 86 °C
66 | O=C(O)c1cccc(Nc2nc(Oc3ccccc3)nc(Oc3cccc([N+](=O)[O-])c3)n2)c1 | 225 to 228 °C
67 | CCCOc1ccc(Br)cc1-c1nc2c(CCC)nn(C)c2c(=O)[nH]1 | 117 to 118 °C
68 | CC(C)(C)OC(=O)N1CCN(c2cccc(-c3cnc4[nH]cc(C(=O)C5(C)CCCCC5)c4n3)c2)CC1 | 212 to 213 °C
69 | COc1cc(Nc2c(C#N)cnc3cc(-c4ccc(CN5CCCCC5)cc4)sc23)c(Cl)cc1Cl | 218 to 220 °C
70 | CC(=O)Nc1cc(Cc2ccc3c(C(=O)Nc4ccc(CN5CCN(C)CC5)c(C(F)(F)F)c4)cccc3c2)ncn1 | 202 to 204 °C
71 | COc1ccccc1-c1cccc([N+](=O)[O-])c1 | 68 to 69 °C
72 | CN(C)CCNC(=O)N1CCC(Oc2cccc(Cl)c2Cl)C1 (configuration not stated) | 94 to 95 °C
73 | COCC1(O)CCN(c2ccc(N3C[C@H](CNC(C)=O)OC3=O)cc2F)CC1 | 80 to 82 °C
74 | CC(=O)NC1(c2ccc(=O)n(C)c2)CCCCC1 | 194 to 195 °C
75 | CC(O)(c1cccc(Cl)c1)c1cc(Cl)ccc1O (configuration not stated) | 125 °C

Row | SMILES | melting point
76 | C#CCNC(=O)N1CC(Oc2cccc(C(F)(F)F)c2)C1 | 105 to 106 °C
77 | COc1ccc(S(=O)(=O)N2Cc3ccccc3N(C(=O)c3ccc(-n4ccc(C)n4)cc3Cl)CC2C(=O)NO)cc1 (configuration not stated) | 189 to 191 °C
78 | COCCNC(=NC#N)Nc1ccc(C2=NNC(=O)CC2C)cc1 (configuration not stated) | 196 to 197 °C
79 | COc1cc(OC)c(F)c(N)c1F | 78 to 79 °C
80 | CC(O)CN1C(C)(C)CC(O)CC1(C)C (configuration not stated) | 97 to 98 °C
81 | CS(=O)(=O)Nc1cc2occ(CO)c(=O)c2cc1Oc1ccccc1 | 165 to 166 °C
82 | COC(=O)/C=C/c1c(OC)cccc1OC | 76 to 78 °C
83 | COC(=O)c1cc(CBr)cc(C2(C#N)CCC2)c1 | 93.9 to 94.6 °C
84 | Nc1cc(C(F)(F)F)cc([N+](=O)[O-])c1N | 121 to 123 °C
85 | N#CC1(c2cccs2)CCC(=O)CC1 | 118 to 119 °C
86 | O=C(O)Cc1c(C(=O)c2cc(Cl)ccn2)[nH]c2cc(Cl)ccc12 | 233 to 234 °C
87 | CCOC(=O)C1CN(C(=O)c2cc(OC)c(OC)c(OC)c2)CCN1C(=O)c1cc(OC)c(OC)c(OC)c1 (configuration not stated) | 130 °C
88 | COC(=O)Nc1nc2cc(C(=NO)c3ccc(F)cc3)ccc2[nH]1 | > 315 °C
89 | CCn1ncc2c(NCC3CCCCC3)c3cc(OCC4CO4)ccc3nc21 (configuration not stated) | 160 to 163 °C
90 | CC(=O)N(C)C(=O)ON=C1SCC(=O)NC1(C)C | 218 to 220 °C
91 | Cc1ccc(C23CC4CC(C2)CC(c2ccc(C)cc2)(C4)C3)cc1 | 145 to 146 °C
92 | CC(OC1CCCCO1)C1CCC2C3CC=C4CC(O)CC(O)C4(C)C3CCC12C (configuration not stated) | 122 to 124 °C
93 | CN1C(=O)N(c2c(Cl)cccc2Cl)Cc2cnc(NCc3ccc(CN)cc3)nc21 | 151 to 152 °C
94 | Cc1cc(-c2cc(C(F)(F)F)n3ncc(-c4nc(-c5ccnc(N)c5)no4)c3n2)ccc1C(F)(F)F | 245 °C
95 | Cc1cc(C)c(/C=C/[C@@H](O)C[C@@H](O)CC(=O)OCOC(=O)C(C)(C)C)c(-c2ccc(F)c(C)c2)c1 | 97 to 98 °C
96 | C[C@@H](NC(=O)c1c[nH]c2ncc(-c3nn(C)c4cccnc34)nc12)C(=O)N1CC(C#N)C1 | 194 to 198 °C
97 | Cc1cc(C#Cc2cn(-c3ccc(F)cc3)c(C)n2)ccn1 | 151 °C
